According to patent US20070202512A1, “Human single nucleotide polymorphisms associated with dose-dependent weight gain and methods of use thereof” (Bristol-Myers Squibb Company, priority 2005, published 2007):

What was measured:
[1] = Phase II clinical trial CV168-006: weight gain by PPAR-alpha SNP1 (Leu162Val) genotype; type: in vivo, human
Protocol: Genomic DNA samples from patients enrolled in a Bristol-Myers Squibb Company Phase II clinical trial CV168-006 trial were genotyped for 1 SNP identified in the human PPAR-alpha gene (see Example 1) and evaluated for association with weight gain.
(§1) 498 subjects enrolled in the CV168-006 trial were analyzed in this study. All analyses were based on data collected up to 24 weeks, which was the duration of the short-term phase of the trials. DNA was extracted from frozen blood by a third-party (Genaissance Inc, North Carolina) using a salting-out method (Gentra Systems). All subjects gave written informed consent.
(§2) Genotyping was performed using the 5′ nuclease assay, essentially as described (Ranade K et al., Genome Research 11: 1262-1268 (2001); which is hereby incorporated by reference herein in its entirety), with the following modifications: six nanograms of genomic DNA were used in a 8 ul reaction. All PCR reactions were performed in an ABI 9700 machine and fluorescence was measured using an ABI 7900 machine.
The association between weight gain and the single nucleotide polymorphisms of the present invention were investigated by applying statistical analysis to the results of the genotyping assays described elsewhere herein. […]
Statistical Analyses. The influence of the SNP on weight gain was assessed using ANOVA. […]

[2] = Phase II clinical trial CV168-006: weight gain by GRL SNP1 (Asn363Ser) genotype; type: in vivo, human; details: patients treated with 20 mg in CV168-006; data up to 24 weeks
Protocol: (§3) Genomic DNA samples from patients enrolled in two Bristol-Myers Squibb Company Phase II clinical trial CV168-006 were genotyped for 1 SNP identified in the human GRL gene (see Example 7) and evaluated for association with weight gain.
as §1
(§4) The influence on SNP1 on weight gain and the probability of achieving lower levels of glycosylated hemoglobin (HbA1C) was assessed using ANOVA (GRL; P=0.005; P=0.007; respectively).
as §2, with “machine. […]” for “machine.”
(§5) Statistical Analyses. The influence of the SNP on weight gain and decreased glycosylated hemoglobin (HbA1C) was assessed using ANOVA. […]

[3] = test system: glycosylated hemoglobin (HbA1C); test: Phase II clinical trial CV168-006: glycosylated hemoglobin (HbA1C) by GRL SNP1 (Asn363Ser) genotype; type: in vivo, human; details: patients treated with 20 mg in CV168-006; data up to 24 weeks
Protocol: as §3, §1, §4
as §2, with “machine. […]” for “machine.”
as §5

[4] = thought to be due to increased fluid retention and fat accumulation; cited from earlier work

| Structure (SMILES) | weight gain, carriers of the Valine allele vs homozygous Leucine allele (PPARα residue 162) ([1]; patients of a Phase II trial, Val carriers compared with Leu/Leu) | influence of PPAR-alpha SNP1 on weight gain, P (ANOVA) ([1]; patients treated with 20 mg in CV168-006, data up to 24 weeks) | influence of GRL SNP1 on weight gain, P (ANOVA) [2] | influence of GRL SNP1 on lower levels of glycosylated hemoglobin (HbA1C), P (ANOVA) [3] | weight gain (side effect) [4] |
| --- | --- | --- | --- | --- | --- |
| COc1ccc(OC(=O)N(CC(=O)O)Cc2ccc(OCCc3nc(-c4ccccc4)oc3C)cc2)cc1 [Compound A, N-[(4-methoxyphenoxy)carbonyl]-N-[[4-[2-(5-methyl-2-phenyl-4-oxazolyl)ethoxy]phenyl]methyl]glycine] | gained significantly less weight | 0.039 | 0.005 | 0.007 | result in weight gain |
| CCc1ccc(CCOc2ccc(CC3SC(=O)NC3=O)cc2)nc1 (stereo not shown) [pioglitazone] |  |  |  |  | can cause weight gain in some individuals |
| CN(CCOc1ccc(CC2SC(=O)NC2=O)cc1)c1ccccn1 (stereo not shown) [rosiglitazone] |  |  |  |  | can cause weight gain in some individuals |
